As usually defined, the Ki is a measure of affinity in units of concentration, obtained from inhibition or displacement. Low readings indicate higher affinity, high ones lower affinity.

SMILES strings stand for the structures. Where a name gives a salt, the structure may show the parent alone.

The values below come from patent US9328138B2 (priority 2011, dated 2016).

The target of experiment [1] is HCV NS3 protease genotype 3a (3A-1) (Hepatitis C virus genotype 3a, UniProt Q81258). In words: HCV NS3 protease time-resolved fluorescence (TRF) assay, genotype 3a. Format: biochemical. The settings on record: Ki 3a. Put shortly:
(§1)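 Inhibitor titrations are mixed with NS3/NS4A in pH 7.5 HEPES buffer containing 10 mM DTT and 15% glycerol for 10 min before substrate (25 nM final) is added. After 6 h at room temperature, delayed fluorescence is read and fitted to a four-parameter curve for IC50.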

The target in experiment [2] is T1, HCV genotype 1b (BK) NS3 modified enzyme with a R155K mutation (Hepatitis C virus genotype 1b, UniProt P26663, R1181K).
T1 construct: HCV genotype 1b (BK) NS3 modified enzyme
The experiment in a line: HCV NS3 protease time-resolved fluorescence (TRF) assay, genotype 1b R155K. Format: biochemical. The settings on record: Ki 1b R155K. The gist of the method: as §1

[3] abbreviates: first of two values printed in the cell (not explained).
Where [4] appears, read: second of two values printed in the cell (not explained).
[5] abbreviates: genotype 1b (BK) NS3 R155K, single value.

For the molecule `C=C[C@@H]1C[C@]1(NC(=O)[C@@H]1C[C@@H]2CN1C(=O)[C@H](C1CCCCC1)NC(=O)O[C@@H]1C[C@H]1CCCCCc1c(nc3ccccc3c1OC1CC3COCC(C1)N3CC)O2)C(=O)NS(=O)(=O)C1(C)CC1` (stereo partly drawn) [Example 290, 7-{[(1aR,5S,8S,10R,22aR)-5-cyclohexyl-8-{[(1R,2S)-2-ethenyl-1-{[(1-methylcyclopropyl)sulfonyl]carbamoyl}cyclopropyl]carbamoyl}-3,6-dioxo-1,1a,3,4,5,6,9,10,18,19,20,21,22,22a-tetradecahydro-8H-7,10-methanocyclopropa[18,19][1,10,3,6]dioxadiazacyclononadecino[11,12-b]quinolin-17-yl]oxy}-9-ethyl-3-oxa-9-azoniabicyclo[3.3.1]nonane formate], the Ki in experiment [1] came to 1.14 nM; in experiment [2] (setting [3]), 0.012 nM; in experiment [2] (setting [4]), 0.125 nM.
For `C=C[C@@H]1C[C@]1(NC(=O)[C@@H]1C[C@@H]2CN1C(=O)[C@H](C1CCCC1)NC(=O)O[C@@H]1CCC[C@H]1CC/C=C/Cc1c(nc3ccccc3c1OCCn1cccn1)O2)C(=O)NS(=O)(=O)C1CC1` [Example 44, (3aR,7S,10S,12R,21E,24aS)-7-cyclopentyl-N-{(1R,2S)-1-[(cyclopropylsulfonyl)carbamoyl]-2-ethenylcyclopropyl}-5,8-dioxo-19-[2-(1H-pyrazol-1-yl)ethoxy]-1,2,3,3a,5,6,7,8,11,12,20,23,24,24a-tetra decahydro-10H-9,12-methanocyclopenta[18,19][1,10,3,6]dioxadiazacyclonona decino[11,12-b] quinoline-10-carboxamide], the Ki is 7.9 nM in experiment [1] and 0.25 nM in experiment [2] (setting [5]).
On to `C=C[C@@H]1C[C@]1(NC(=O)[C@@H]1C[C@@H]2CN1C(=O)[C@H](C1CCCCC1)NC(=O)O[C@@H]1C[C@H]1CCCCCc1c(nc3ccccc3c1OC1CC3COCC(C1)N3CCOC)O2)C(=O)NS(=O)(=O)C1(C)CC1` (stereo partly drawn) [Example 289, (1aR,5S,8S,10R,22aR)-5-cyclohexyl-N-[(1R,2S)-2-ethenyl-1-{[(1-methylcyclopropyl)sulfonyl]carbamoyl}cyclopropyl]-17-{[9-(2-methoxyethyl)-3-oxa-9-azabicyclo[3.3.1]non-7-yl]oxy}-3,6-dioxo-1,1a,3,4,5,6,9,10,18,19,20,21,22,22a-tetradecahydro-8H-7,10-methanocyclopropa[18,19][1,10,3,6]dioxadiazacyclononadecino[11,12-b]quinoline-8-carboxamide], for which the Ki in experiment [1] came out at 3.27 nM; in experiment [2] (setting [3]) it was 0.03 nM; in experiment [2] (setting [4]) it was 0.197 nM.
Take `C=C[C@@H]1C[C@]1(NC(=O)[C@@H]1C[C@@H]2CN1C(=O)[C@H](C1(C)CCCCC1)NC(=O)O[C@@H]1C[C@H]1CCCCCc1c(nc3ccccc3c1OC1CCN(C)CC1)O2)C(=O)NS(=O)(=O)C1(C)CC1` [Example 232, (1aR,5S,8S,10R,22aR)—N-[(1R,2S)-2-ethenyl-1-{[(1-methylcyclopropyl)sulfonyl]carbamoyl}cyclopropyl]-5-(1-methylcyclohexyl)-17-[(1-methylpiperidin-4-yl)oxy]-3,6-dioxo-1,1a,3,4,5,6,9,10,18,19,20,21,22,22a-tetradecahydro-8H-7,10-methanocyclopropa[18,19][1,10,3,6]dioxadiazacyclononadecino[11,12-b]quinoline-8-carboxamide]: the Ki in experiment [1] was 0.275 nM; in experiment [2] (setting [3]), 0.02 nM; in experiment [2] (setting [4]), 0.04 nM.
Regarding `C=C[C@@H]1C[C@]1(NC(=O)[C@@H]1C[C@@H]2CN1C(=O)[C@H](C(C)(C)C)NC(=O)O[C@H]1C[C@@H]1CCCCCc1c(nc3ccncc3c1OC1CCN(C)CC1)O2)C(=O)NS(=O)(=O)C1(C)CC1` [Example 295, (1aS,5S,8S,10R,22aS)-5-tert-butyl-N-{(1R,2S)-2-ethenyl-1-[(1-methylcyclopropanesulfonamido)carbonyl]cyclopropyl}-17-[(1-methylpiperidin-4-yl)oxy]-3,6-dioxo-1,1a,3,4,5,6,9,10,18,19,20,21,22,22a-tetradecahydro-8H-7,10-methanocyclopropa[18,19][1,10,3,6]dioxadiazacyclononadecino[11,12-b][1,6]naphthyridine-8-carboxamide], the Ki was 1.07 nM in experiment [1] and 0.082 nM in experiment [2] (setting [5]).
As to `C=C[C@@H]1C[C@]1(NC(=O)[C@@H]1C[C@@H]2CN1C(=O)[C@H](C(C)(C)C)NC(=O)O[C@@H]1C[C@H]1CCCCCc1c(nc3ccccc3c1OCCCN1CC3CCC1C3)O2)C(=O)NS(=O)(=O)C1(C)CC1` [Example 196, (1aR,5S,8S,10R,22aR)-17-[3-(2-azabicyclo[2.2.1]hept-2-yl)propxy]-5-tert-butyl-N-[(1R,2S)-2-ethenyl-1-{[(1-methylcyclopropyl)sulfonyl]carbamoyl}cyclopropyl]-3,6-dioxo-1,1a, 3,4,5,7,9,10,18,19,20,21,22,22a-tetradecahydro-8H-7,10-methanocyclopropa[18,19][1,10,3,6] dioxadiazacyclononadecino[11,12-b] quinoline-8-carboxamide], the values for the Ki in experiment [1] and in experiment [2] (setting [5]) were 0.85 nM and 0.1 nM, respectively.
With `C=C[C@@H]1C[C@]1(NC(=O)[C@@H]1C[C@@H]2CN1C(=O)[C@H](C1CCCC1)NC(=O)O[C@@H]1CCC[C@H]1CC/C=C/Cc1c(nc3ccccc3c1OCCC(C)(C)O)O2)C(=O)NS(=O)(=O)C1(C)CC1` [Example 49, (3aR,7S,10S,12R,21E,24aS)-7-cyclopentyl-N-[(1R,2S)-2-ethenyl-1-{[(1-methylcyclopropyl)sulfonyl]carbamoyl}cyclopropyl]-19-(3-hydroxy-3-methylbutoxy)-5,8-dioxo-1,2,3,3a,5,6,7,8,11,12,20,23,24,24a-tetradecahydro-10H-9,12-methanocyclo penta[18,19][1,10,3,6]dioxadiazacyclo nonadecino[11,12-b]quinoline-10-carboxamide], the Ki in experiment [1] came out at 1.5 nM; in experiment [2] (setting [5]), 0.16 nM.
On to `C=C[C@@H]1C[C@]1(NC(=O)[C@@H]1C[C@@H]2CN1C(=O)[C@H](C1CCCCC1)NC(=O)O[C@@H]1C[C@H]1CCCCCc1c(nc3ccccc3c1O[C@@H]1CCN(C(=O)OC(C)(C)C)C[C@@H]1F)O2)C(=O)NS(=O)(=O)C1(C)CC1` [Example 292, tert-butyl (3S,4R)-4-{[(1aR,5S,8S,10R,22aR)-5-cyclohexyl-8-{[(1R,2S)-2-ethenyl-1-{[(1-methylcyclopropyl)sulfonyl]carbamoyl}cyclopropyl]carbamoyl}-3,6-dioxo-1,1a,3,4,5,6,9,10,18,19,20,21,22,22a-tetradecahydro-8H-7,10-methanocyclopropa[18,19][1,10,3,6]dioxadiazacyclononadecino[11,12-b]quinolin-17-yl]oxy}-3-fluoropiperidine-1-carboxylate], for which the values for the inhibitory constant (Ki) in experiment [1], in experiment [2] (setting [3]) and in experiment [2] (setting [4]) were 49.4 nM, 0.12 nM and 0.733 nM, respectively.
As to `C=C[C@@H]1C[C@]1(NC(=O)[C@@H]1C[C@@H]2CN1C(=O)[C@H](C(C)(C)C)NC(=O)O[C@@H]1C[C@H]1CCCCCc1c(nc3ccccc3c1OCCCNC1CC1)O2)C(=O)NS(=O)(=O)C1(C)CC1` [Example 183, (1aR,5S,8S,10R,22aR)-5-tert-butyl-17-[3-(cyclopropylamino)propoxy]-N-[(1R,2S)-2-ethenyl-1-{[(1-methylcyclopropyl)sulfonyl]carbamoyl}cyclopropyl]-3,6-dioxo-1,1a,3,4,5,6,9,10, 18,19,20,21,22,22a-tetradeca hydro-8H-7,10-methanocyclopropa[18,19][1,10,3,6] dioxadiazacyclononadecino[11,12-b] quinoline-8-carboxamide], the Ki in experiment [1] worked out at 0.95 nM; in experiment [2] (setting [5]), 0.07 nM.
